# Data: US20060069132A1, “Azolecarboxamide herbicides” (priority 2004, published 2006)
# Experiments:
# purple redstem = assay: Test D flooded paddy test; type: in vivo, Ammannia coccinea; details: 21 days, scale 0 to 100
# Excerpt: (§1) Three plastic pots (ca. 16-cm diameter) per rate were partially filled with sterilized Tama silt loam soil comprising a 35:50:15 ratio of sand, silt and clay and 2.6% organic matter. Separate plantings for each of the three pots were as follows. Seeds from the U.S. of ducksalad (Heteranthera limosa (Sw.) Willd.), smallflower umbrella sedge (Cyperus difformis L.) and purple redstem (Ammannia coccinea Rottb.), were planted into one 16-cm pot for each rate. Seeds from the U.S. of rice flatsedge (Cyperus iria L.), bearded sprangletop (Leptochloa fascicularis (Lam.) Gray), one stand of 9 or 10 water seeded rice seedlings (Oryza sativa L. cv. ‘Japonica—M202’), and one stand of 6 transplanted rice seedlings (Oryza sativa L. cv. ‘Japonica—M202’) were planted into one 16-cm pot for each rate. Seeds from the U.S. of barnyardgrass (Echinochloa crus-galli (L.) Beauv.), late watergrass (Echinochloa oryzicola Vasinger), early watergrass (Echinochloa oryzoides (Ard.) Fritsch) and junglerice (Echinochloa colona (L.) Link) were planted into one 16-cm pot for each rate. Plantings were sequential so that crop and weed species were at the 2.0 to 2.5-leaf stage at time of treatment.
# (§2) Potted plants were grown in a greenhouse with day/night temperature settings of 29.5/26.7° C., and supplemental balanced lighting was provided to maintain a 16-hour photoperiod. Test pots were maintained in the greenhouse until test completion.
# (§3) At time of treatment, test pots were flooded to 3 cm above the soil surface, treated by application of test compounds directly to the paddy water, and then maintained at that water depth for the duration of the test. Effects of treatments on rice and weeds were visually evaluated by comparison to untreated controls after 21 days. Plant response ratings are reported on a 0 to 100 scale; where 0 is no effect and 100 is complete control. A dash (-) response means no test result.
# [1] = tested on: transplanted rice seedlings; assay: Test D flooded paddy test; type: in vivo, Oryza sativa; details: 21 days, scale 0 to 100
# Excerpt: as §1, §2, §3
# late watergrass = assay: Test D flooded paddy test; type: in vivo, Echinochloa oryzicola; details: 21 days, scale 0 to 100
# Excerpt: as §1, §2, §3
# junglerice = assay: Test D flooded paddy test; type: in vivo, Echinochloa colona; details: 21 days, scale 0 to 100
# Excerpt: as §1, §2, §3
# hairy beggarticks = assay: Test E pre-/postemergence herbicide test; type: in vivo, Bidens radiata; details: Preemergence
# Excerpt: Seeds of plant species selected from bipinnate beggarticks (Bidens bipinnata L.), hairy beggarticks (Bidens radiata Thuill.), bermudagrass (Cynodon dactylon (L.) Pers.), Surinam grass (Urochloa decumbens (Staph) R. D. Webster, previously named Brachiaria decumbens Stapf), large crabgrass (Digitaria sanguinalis (L.) Scop.), green foxtail (Setaria viridis (L.) P. Beauv.), goosegrass (Eleusine indica (L.) Gaertn.), johnsongrass (Sorghum halepense (L.) Pers.), kochia (Kochia scoparia (L.) Schrad.), pitted morningglory (Ipomoea lacunosa L.), purple nutsedge (Cyperus rotundus L.), common ragweed (Ambrosia elatior L.), mustard (Brassica nigra (L.) W. D. J. Koch), guineagrass (Panicum maximum Jacq.), dallisgrass (Paspalum dilatatum Poir.), barnyardgrass (Echinochloa crus-galli (L). P. Beauv.), southern sandbur (Cenchrus echinatus L.), common sowthistle (Sonchus oleraceous L.), prickly sida (Sida spinosa L.), Italian ryegrass (Lolium multiflorum Lam.), common purslane (Portulaca oleracea L.), broadleaf signalgrass (Brachiaria platyphylla (Griseb.) Nash), common groundsel (Senecio vulgaris L.), common chickweed (Stellaria media (L.) Vill/Cyr.), tropical spiderwort (Commelina benghalensis L.), annual bluegrass (Poa annua L.), downy bromegrass (Bromus tectorum L.), itchgrass (Rottboellia cochinchinensis (L.) L.f.), quackgrass (Elytrigia repens (L.) Nevski), Canada horseweed (Erigeron Canadensis L.), field bindweed (Convolvulus arvensis L.), spotted spurge (Euphorbia maculata L.), common mallow (Malva sylvestris (=s silvestris) L.), and Russian thistle (Salsola kali L. ssp. Ruthenica (Iljin) Soo) were planted and treated preemergence with test chemicals formulated in a non-phytotoxic solvent mixture which included a surfactant.
# At the same time, plants selected from these weed species were treated with postemergence applications of some of the test chemicals formulated in the same manner. Plants ranged in height from 2 to 18 cm (1- to 4-leaf stage) for postemergence treatments. Treated plants and controls were maintained in a greenhouse for 12 to 14 days, after which time all species were compared to controls and visually evaluated. Plant response ratings, summarized in Table E, are based on a scale of 0 to 100 where 0 is no effect and 100 is complete control. A dash (-) response means no test result.
# wheat cv. Retical = assay: Test H safening on wheat by naphthalic anhydride seed treatment, pre-/postemergence; type: in vivo, Triticum aestivum; parameters: key to Response of wheat, Without naphthalic anhydride seed treatment: 0 = no effect, 100 = complete plant death, vs untreated control; details: preemergence
# Protocol: This test evaluated the safening of compounds of the invention on wheat (Triticum aestivumL.) cv. ‘Retical’ by seed treatment with naphthalic anhydride. Some of the wheat seed was treated with napthalic anhydride as a 1% by weight seed dressing. The wheat seed were planted in pots containing pasteurized Sassafras sandy loam soil. For postemergence testing the plants were grown 8 days to the 2-leaf stage at time of treatment. Preemergence treatments were applied the same day that the seeds were planted. Treatments were applied by spraying the test compounds formulated in a non-phytotoxic solvent mixture, using a flat fan nozzle and a spray volume of 280 L/ha. The preemergence treatments were triply replicated and the results subsequently averaged. The pots were placed on a growth chamber bench using a complete randomized block design for the preemergence test except for the first replicate, which was unrandomized. The plants were grown in the growth chamber and watered as needed with a dilute nutrient solution containing 200 ppm of N. Illumination was provided by fluorescent lamps giving 200-300 μE/m^2/S of photosynthetically active radiation over a 14-hour photoperiod. The temperature was maintained at 23±2° C. during the day and 17±2° C. at night. The effects of the treatments were rated 25 days after preemergence treatment and 14 days after postemergence treatment. The plant response was visually rated in comparison to untreated controls using a scale of 0 to 100, with 0 representing no effect and 100 representing complete plant death. The results for the compounds tested preemergence are listed in Table H1, and the results for the compounds tested postemergence are listed in Table H2.
smiles,measurement,setting,value
CCn1nc(C(C)(C)C)cc1C(=O)Nc1cc(C(=O)NCC2CC2)ccn1 [Compound 155],"Plant response rating, Redstem",purple redstem; 32 g ai/ha,0
same,"Plant response rating, Redstem",purple redstem; 64 g ai/ha,0
same,"Plant response rating, Redstem",purple redstem; 125 g ai/ha,0
same,"Plant response rating, Redstem",purple redstem; 250 g ai/ha,95
same,"Plant response rating, Redstem",purple redstem; 500 g ai/ha,95
same,"Plant response rating, Rice, Transplanted",[1]; 32 g ai/ha,0
same,"Plant response rating, Rice, Transplanted",[1]; 64 g ai/ha,0
same,"Plant response rating, Rice, Transplanted",[1]; 125 g ai/ha,20
same,"Plant response rating, Rice, Transplanted",[1]; 250 g ai/ha,30
same,"Plant response rating, Rice, Transplanted",[1]; 500 g ai/ha,30
same,"Plant response rating, Watergrass, Late",late watergrass; 32 g ai/ha,0
same,"Plant response rating, Watergrass, Late",late watergrass; 64 g ai/ha,0
same,"Plant response rating, Watergrass, Late",late watergrass; 125 g ai/ha,20
same,"Plant response rating, Watergrass, Late",late watergrass; 250 g ai/ha,30
same,"Plant response rating, Watergrass, Late",late watergrass; 500 g ai/ha,60
same,"Plant response rating, Junglerice",junglerice; 32 g ai/ha,20
same,"Plant response rating, Junglerice",junglerice; 64 g ai/ha,40
same,"Plant response rating, Junglerice",junglerice; 125 g ai/ha,40
same,"Plant response rating, Junglerice",junglerice; 250 g ai/ha,40
same,"Plant response rating, Junglerice",junglerice; 500 g ai/ha,65
"CCN1N=C(C(C)(C)C)CC1C(=O)Nc1cc(C(=O)N(C)C)ccc1F (centres unmarked) [Compound 268, N-[5-[(dimethylamino)carbonyl]-2-fluorophenyl]-3-(1,1-dimethylethyl)-1-ethyl-4,5-dihydro-1H-pyrazole-5-carboxamide]","Plant response rating, Beggarticks, Hairy","hairy beggarticks; 62 g ai/ha, scale 0 to 100",40
same,"Plant response rating, Beggarticks, Hairy","hairy beggarticks; 125 g ai/ha, scale 0 to 100",95
same,"Plant response rating, Beggarticks, Hairy","hairy beggarticks; 250 g ai/ha, scale 0 (no effect) to 100 (complete control)",100
same,"Plant response rating, Beggarticks, Hairy","hairy beggarticks; 500 g ai/ha, scale 0 (no effect) to 100 (complete control)",100
"CCn1nc(C(C)(C)C)cc1C(=O)Nc1cc(C(=O)N(C)C)ccn1 [Compound 156, 2-[[[3-(1,1-dimethylethyl)-1-ethyl-1H-pyrazol-5-yl]carbonyl]amino]-N,N-dimethyl-4-pyridinecarboxamide]","Response of wheat, With 1% naphthalic anhydride seed treatment",wheat cv. Retical; 62 g a.i./ha,7
same,"Response of wheat, Without naphthalic anhydride seed treatment",wheat cv. Retical; 62 g a.i./ha,67
same,"Response of wheat, With 1% naphthalic anhydride seed treatment",wheat cv. Retical; 125 g a.i./ha,70
same,"Response of wheat, Without naphthalic anhydride seed treatment",wheat cv. Retical; 125 g a.i./ha,100
same,"Response of wheat, With 1% naphthalic anhydride seed treatment",wheat cv. Retical; 250 g a.i./ha,85
same,"Response of wheat, Without naphthalic anhydride seed treatment",wheat cv. Retical; 250 g a.i./ha,100
same,"Response of wheat, With 1% naphthalic anhydride seed treatment",wheat cv. Retical; 500 g a.i./ha,99
same,"Response of wheat, Without naphthalic anhydride seed treatment",wheat cv. Retical; 500 g a.i./ha,100
